pKi: −log10 of the molar value. Counter-ions that a name gives are not always drawn. Like-named read-outs stand apart in the source and are kept apart here.
Experiments:
[1] = test system: neuronal nicotinic acetylcholine receptors in IMR-32 cells; test: 86Rb+ efflux assay in IMR-32 neuroblastoma cells; assay type: cell-based, human; conditions: for IMR-32 % max: maximal response, percent relative to 100 μM (S)-nicotine
Procedure: (§1) B. Protocols for the Determination of Functional Effects of Nicotinic Acetylcholine Receptor Ligands on Synaptic Transmission
Experimental cells were seeded at a density of 500,000 cells/mL into a 24-well tissue culture dish. Plated cells were allowed to proliferate for at least 48 hours before loading with 2 μCi/mL of ^86 Rb^+ (35 Ci/mmol) overnigh at 37° C.

[2] = biological target: T1, α4 and β2 nicotinic acetylcholine subunits (K177 cells) (Homo sapiens, UniProt P17787+P43681); test: 86Rb+ efflux assay in K177 cells (HEK 293 stably transfected with α4 and β2 nicotinic acetylcholine subunits); assay type: cell-based
T1 construct: expressed in transfected cells
Procedure: as §1
Cells of the IMR-32 human neuroblastoma clonal cell line (ATCC, Rockville, Md.) were maintained in a log phase of growth according to established procedures (Lukas, R. J., J. Pharmacol. Exp. Ther., 265: 294-302, 1993). Experimental cells were seeded at a density of 500,000 cells/mL into a 24-well tissue culture dish. Plated cells were allowed to proliferate for at least 48 hours before loading with 2 μCi/mL of ^86 Rb^+ (35 Ci/mmol) overnigh at 37° C. The ^86 Rb^+ efflux assays were performed according to previously published protocols (Lukas, 1993) except serum-free Dulbecco's Modified Eagle's Medium was used during the ^86 Rb^+ loading, rinsing, and agonist-induced efflux steps.
Cells of the K177 cell line, resulting from stable transfection of the human embryonic kidney (HEK) 293 cell line with the cDNA of the α4 and β2 nicotinic acetylcholine subunits (Gopalakrishnan, et al, J. Pharmacol. Expt. Ther. 1996, 276, 289-297), were maintained in a log phase of growth according to established procedures (Gopalakrishnan, et al., loc. cit.). The cells were plated onto poly-lysine coated 24-well Costar plates (Cambridge, Mass.) at a density of 250,000 cells/well. When confluent, the cells were loaded with ^86 Rb^+ and agonist-induced efflux was assessed as reported above for IMR-32 cells.
Maximal responses (reported as percent relative to the response elicited by 100 μM (S)-nicotine) are shown for selected compounds of the invention. The inhibition data (given for other selected compounds) reflect inhibition of the efflux elicited by 100 μM (S)-nicotine at the indicated concentration. […] This finding is in agreement with the results of others who have linked dopamine release, which is dependent upon the ion flux in synaptic transmission, to binding at nicotinic receptors (cf., for example, Lippiello and Caldwell, U.S. Pat. No. 5,242,935, issued Sept. 7, 1993; Caldwell and Lippielo, U.S. Pat. No. 5,248,690, issued Sept. 28, 1993; and Wonnacott et al., Prog. Brain Res; 79: 157-163 (1989)).

[3] = biological target: neuronal nicotinic acetylcholine receptors; test: [3H]-cytisine ligand-receptor binding assay (crude synaptic membranes from whole rat brain); conditions: for binding to the nicotinic acetylcholine receptor (in words): preferred compounds
Procedure: For the purpose of identifying compounds as nicotinic acetylcholinergic agents which are capable of interacting with neuronal nicotinic acetylcholine receptors in the brain, a ligand-receptor binding assay was carried out as the initial screen. Compounds of the present invention were effective at interacting with neuronal nicotinic acetylcholine receptors as assayed for their ability to displace radioligand from neuronal nicotinic acetylcholine receptors labeled with [^3 H]-cytisine ([^3 H]-CYT).
A. Protocol For Determination of Nicotinic Acetylcholine Receptor Binding Potencies of Ligands
Binding of [^3 H]-CYT to nicotinic acetylcholine receptors was accomplished using crude synaptic membrane preparations from whole rat brain (Pabreza et al., Molecular Pharmacol., 1990, 39:9). Washed membranes were stored at -80° C. prior to use. Frozen aliquots were slowly thawed and resuspended in 20 volumes of buffer (containing: 120 mM NaCl, 5 mM KCl, 2 mM MgCl2, 2 mM CaCl2 and 50 mM Tris-Cl, pH 7.4 @4° C.). After centrifuging at 20,000×g for 15 minutes, the pellets were resuspended in 30 volumes of buffer. Homogenate (containing 125-150 μg protein) was added to triplicate tubes containing concentrations of test compound and [^3 H]-CYT (1.25 nM) in a final volume of 500 μL. Samples were incubated for 60 minutes at 4° C., then rapidly filtered through Whatman GF/B filters presoaked in 0.5% polyethylimine using 3×4 mL of ice-cold buffer. The filters were counted in 4 mL of Ecolume® (ICN). Nonspecific binding was determined in the presence of 10 μM (-)-nicotine and values were expressed as a percentage of total binding.

[4] = Table 1, inhibition of efflux elicited by 100 μM (S)-nicotine
[5] = K177, Table 1, maximal response, percent relative to 100 μM (S)-nicotine, read-out: K177 % max
[6] = Table 1, [3H]-cytisine 1.25 nM, 4° C., 60 min, Ki by Cheng and Prusoff, read-out: [^3 H]-Cyt Binding
[7] = K177, Table 1, inhibition of efflux elicited by 100 μM (S)-nicotine, 10 μM, read-out: K177 % Inhibition @ 10 μM

T1 sequence (P43681 29-627 limits assumed): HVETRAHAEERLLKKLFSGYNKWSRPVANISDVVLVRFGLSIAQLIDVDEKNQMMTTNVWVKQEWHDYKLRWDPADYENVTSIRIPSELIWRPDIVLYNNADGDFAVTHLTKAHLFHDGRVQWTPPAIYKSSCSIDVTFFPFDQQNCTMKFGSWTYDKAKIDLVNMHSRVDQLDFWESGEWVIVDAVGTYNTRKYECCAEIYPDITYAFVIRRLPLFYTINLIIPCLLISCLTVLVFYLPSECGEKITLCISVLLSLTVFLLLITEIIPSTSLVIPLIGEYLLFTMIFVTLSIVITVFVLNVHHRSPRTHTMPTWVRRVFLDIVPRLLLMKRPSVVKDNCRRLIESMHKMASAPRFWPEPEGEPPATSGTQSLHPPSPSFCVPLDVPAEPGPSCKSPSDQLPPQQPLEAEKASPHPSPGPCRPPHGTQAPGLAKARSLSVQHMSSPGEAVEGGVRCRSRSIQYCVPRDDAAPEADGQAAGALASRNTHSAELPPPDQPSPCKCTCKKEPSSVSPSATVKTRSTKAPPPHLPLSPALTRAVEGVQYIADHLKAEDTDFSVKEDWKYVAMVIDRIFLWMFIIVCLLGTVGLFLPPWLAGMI
T1 sequence (P17787 26-502): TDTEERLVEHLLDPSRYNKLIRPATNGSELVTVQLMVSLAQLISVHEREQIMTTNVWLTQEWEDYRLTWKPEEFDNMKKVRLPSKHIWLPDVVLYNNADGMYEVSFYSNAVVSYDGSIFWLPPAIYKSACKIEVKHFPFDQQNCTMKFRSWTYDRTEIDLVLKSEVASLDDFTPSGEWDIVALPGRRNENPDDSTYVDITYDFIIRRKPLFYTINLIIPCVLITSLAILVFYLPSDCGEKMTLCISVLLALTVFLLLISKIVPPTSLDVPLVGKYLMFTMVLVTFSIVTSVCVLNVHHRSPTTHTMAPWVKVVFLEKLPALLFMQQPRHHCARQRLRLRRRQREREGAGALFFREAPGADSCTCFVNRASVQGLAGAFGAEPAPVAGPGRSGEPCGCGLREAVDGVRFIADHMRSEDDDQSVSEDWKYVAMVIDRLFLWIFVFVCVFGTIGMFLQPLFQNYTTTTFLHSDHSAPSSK

Compound	IMR-32 % Inhibition @ 10 μM [1, 4] [%]	IMR-32 % max ([1]; Table 1) [%]	Emax [2, 5] [%]	pKi [3, 6]	also measured
Brc1ccc2oc([C@H]3CCCN3)cc2n1 [Example 33, 5-bromo-2-(2-(R)-pyrrolidinyl)-furo[3,2-b]pyridine hydrochloride]	8	0	0	–	–
CN1CCC[C@H]1c1cc2nc(Cl)ccc2o1 [Example 12, 5-chloro-2-(1-methyl-2-(S)-pyrrolidinyl)-furo[3,2-b]pyridinehydrochloride]	–	11	41	8.39	–
Cl.Clc1cc2oc(C34CCCN3CCC4)cc2nc1Cl [Example 38, 2-(Hexahydro-1H-7a-pyrrolizinyl)-5,6-dichlorofuro[3,2-b]pyridine hydrochloride]	10	12	0	9.48	–
c1cnc2cc([C@H]3C[C@@H]4CC[C@H]3N4)oc2c1 (relative stereo) [Example 52, (±)-2-(7-aza-2-exo-bicyclo[2.2.1]heptyl)furo[3,2-b]pyridine dihydrochloride]	–	69	36	9.07	–
CN1CCC[C@H]1c1cc2ncccc2o1.Cl.Cl [Example 1, 2-(1-methyl-2-(S)-pyrrolidinyl)furo[3,2-b]pyridine dihydrochloride]	–	7	79	8.57	IMR-32 % Inhibition @ (30 μM) ([1]; Table 1, inhibition of efflux elicited by 100 μM (S)-nicotine, 30 μM): 16%
CN1CCC[C@H]1c1cc2nc(Cl)c(Cl)cc2o1.Cl [Example 26, 5,6-Dichloro-2-(1-methyl-2-(S)-pyrrolidinyl)furo[3,2-b]pyridine hydrochloride]	38	7	6	9.18	binding to the nicotinic acetylcholine receptor (in words) [3]: most potent binders; inhibition at 10 µM [2, 7]: 53%
Cl.Clc1cc2oc([C@H]3CCCN3)cc2nc1Cl [Example 39, 5,6-Dichloro-2-(2-(R)-pyrrolidinyl)furo[3,2-b]pyridine hydrochloride]	25	4	39	8.96	–
Clc1ccc2oc([C@H]3CCCN3)cc2n1 [Example 35, 5-chloro-2-(2-(R)-pyrrolidinyl)-furo[3,2-b]pyridine hydrochloride]	–	–	61	8.96	–
Cl.c1cnc2cc(C34CCCN3CCC4)oc2c1 [Example 15, 2-(Hexahydro-1H-7a-pyrrolizinyl)furo[3,2-b]pyridine hydrochloride]	–	43	9	9.35	binding to the nicotinic acetylcholine receptor (in words) [3]: most potent binders
CN1CCC[C@H]1c1cc2nc(Cl)c(Br)cc2o1.Cl.Cl [Example 48, 6-bromo-5-chloro-2-(1-methyl-2-(S)-pyrrolidinyl)furo[3,2-b]pyridine dihydrochloride]	0	6	0	8.89	–
Cc1ccc2oc([C@@H]3CCCN3C)cc2n1.Cl.Cl [Example 6, 2-(1-methyl-2-(S)-pyrrolidinyl)-5-methylfuro[3,2-b]pyridine dihydrochloride]	4	–	68	8.33	–
Clc1cnc2cc([C@H]3CCCN3)oc2c1 [Example 31, 6-chloro-2-(2-(R)-pyrrolidinyl)-furo[3,2-b]pyridine hydrochloride]	–	–	13	8.01	inhibition at 10 µM [2, 7]: 41%
Cc1ccc2oc(C34CCCN3CCC4)cc2n1 [Example 16, 2-(Hexahydro-1H-7a-pyrrolizinyl)-5-methylfuro[3,2-b]pyridinedihydrochloride]	10	0	109	8.24	–
CN1[C@@H]2CC[C@@H](C2)[C@H]1c1cc2ncccc2o1 [Example 42, 2-((1R,4S)-2-aza-3-(S)-bicyclo[2.2.1]heptyl)-2-methylfuro[3,2-b]pyridil dihydrochloride]	–	24	29	8.33	–
Cl.Cl.c1cnc2cc([C@H]3CCCN3)oc2c1 [Example 3, 2-(2-(R)-pyrrolidinyl)furo[3,2-b]pyridine dihydrochloride]	–	58	34	8.39	–
CN1CCC[C@@H]1c1cc2ncccc2o1 [Example 4, 2-(1-methyl-2-(R)-pyrrolidinyl)furo[3,2-b]pyridine dihydrochloride]	–	–	63	7.76	–
Cl.Nc1cccc(-c2cc3oc([C@H]4CCCN4)cc3nc2Cl)c1 [Example 57, 6-(3-aminophenyl)-5-chloro-2-(2-(R)-pyrrolidinyl)furo[3,2-b]pyridine hydrochloride]	–	–	–	–	pKi ([3]; Table 2, [3H]-cytisine binding, read-out: Binding): 9.08; IMR-32 % max ([1]; Table 2): 22%
Cc1ccc2oc([C@H]3CCCN3)cc2n1.Cl [Example 29, 5-methyl-2-(2-(R)-pyrrolidinyl)-furo[3,2-b]pyridine hydrochloride]	0	–	0	8.17	inhibition at 10 µM [2, 7]: 28%
c1cnc2cc(C34CCCN3CCC4)sc2c1 [Example 24, 2-(Hexahydro-1H-7a-pyrrolizinyl)thieno[3,2-b]pyridine hydrochloride]	–	–	14	8.70	inhibition at 10 µM [2, 7]: 60%
CN1CCC[C@H]1c1cc2ncc(Cl)cc2o1 [Example 8, 6-chloro-2-(1-methyl-2-(S)-pyrrolidinyl)-furo[3,2-b]pyridinedihydrochloride]	9	0	–	7.57	inhibition at 10 µM ([2]; K177, read-out: K177 % Inhibition @ 10 μM): 45%; Emax ([2]; K177, read-out: K177 % max): 3%
Brc1ccc2oc([C@@H]3CCCN3)cc2n1.Cl [Example 28, 5-bromo-2-(2-(S)-parrolidinvy)-furo[3,2-b]pyridine hydrochloride]	–	–	–	8.32	K177 % max ([2]; Table 1, maximal response, percent relative to 100 μM (S)-nicotine): 20%
Cl.Cl.c1cnc2cc([C@@H]3CCCN3)oc2c1 [Example 2, 2-(2-(S)-pyrrolidinyl)furo[3,2-b]pyridine dihydrochloride]	24	–	0	7.12	–
Cl.Cl.c1cc2cc([C@@H]3CCCN3)oc2cn1 [Example 9, 2-(2-(S)-pyrrolidinyl)furo[2,3-c]pyridine dihydrochloride]	–	83	–	6.60	–

— patent US6001849A, “Furopyridine, thienopyridine pyrrolopyridine useful in controlling chemical synaptic transmission” (Abbott Laboratories, priority 1997, dated 1999)
